Here are results for five compounds from paper PMC5225203, “Multiparameter toxicity assessment of novel DOPO-derived organophosphorus flame retardants” (Archives of Toxicology, 2016).

In series [1] the test system is human dorsal root ganglia-like cells (hESC-H9 derived peripheral neurons). Put plainly: Peripheral neurotoxicity test (PeriTox-test). The series is classed as cell-based. To be noted: 48 h. The procedure: The human pluripotent stem cell (hPSC) line H9 (WA09 line) was obtained from WiCell (Madison, WI, USA). Import of cells and experiments was authorized under license #170-79-1-4-27 (Robert Koch Institute, Berlin, Germany). Cells were cultured according to standard protocols (Thomson et al. [1998]) and differentiated into dorsal root ganglia-like cells as described earlier (Chambers et al. [2012]), with slight modifications. Briefly, neural differentiation was promoted by adding neural differentiation medium and the combination of 6 small molecule pathway inhibitors [noggin (35 ng/mL; R&D Systems, Minneapolis, MN, USA), dorsomorphin (600 nM; Tocris Bioscience, Bristol, UK), […] (10 μM; Tocris Bioscience, Bristol, UK), CHIR99021 (1.5 µM; Axon Medchem, Vienna, VA, USA), SU5402 (1.5 µM; Tocris Bioscience, Bristol, UK), and DAPT (5 µM; Merck, Darmstadt, Germany)]. The cells were cryopreserved on day 8′ of differentiation (DoD 8′). For each experiment, cells were thawed in neural differentiation medium supplemented with CHIR99021 (1.5 µM), SU5402 (1.5 µM), and DAPT (5 µM). For the peripheral neurotoxicity test (PeriTox-test), test chemicals were serially diluted in differentiation medium containing BDNF, GDNF, and NGF (25 ng/mL; R&D Systems, Minneapolis, USA) and added to the cells on day 3 after thawing. After 48 h, neurite area and viability were assessed as described earlier (Krug et al. [2013]). Briefly, cells were loaded with 1 µM calcein-AM and 1 µg/mL H-33342 for 1 h at 37 °C. For image acquisition, an Array-Scan VTI HCS (high content screening) microscope (Cellomics, Waltham, MA USA) was used. In an automated procedure, all H-33342^+/calcein^+ cells were analyzed as viable cells. In channel 1, H-33342^+ nuclei were detected according to their size, area, shape, and intensity at excitation/emission wavelengths of 365 ± 50/535 ± 45. The nuclei borders were expanded radially by 3.2 µm to define a virtual cell soma area (VCSA). In channel 2 (at excitation/emission wavelengths of 474 ± 40/535 ± 45), all calcein^+ pixels were identified as viable cell structures (VCS). An algorithm was applied that used the VCSA as a filter in the calcein channel and subtracted it from the VCS. The remaining pixels (VCS-VCSA) in the calcein channel were defined as neurite area and were represented relative to the untreated control.

The next series concerns Daphnia magna. Kind of series: Acute daphnia immobilization test (OECD guideline 202). The series is classed as in vivo. To be noted: for daphnia viability: at concentrations ≤400 µM (abstract); for Immobile Daphnia after 48 h: 20 individuals. The protocol: Loading Num ber of I m m obile rate Replicat e individuals Da phnia
(mg/l) per test af t er 48 h
Suppl. Fig. 5. Freshwater microcrustacean toxicity test. Acute toxicity was determined in Daphnia magna according to the standardized OECD guidelines number 202 test, performed by BMG Engineering Ltd., Schlieren, Switzerland. Daphnia were cultured in aerated Elendt M4 medium at a constant temperature of 21°C under a 16:8 light/dark photoperiod. The water soluble fraction of the indicated concentrations of flame retardants were added for 48 h.
Mortality was assessed by the detection of movement analysis. Immobile Daphnia were defined as those animals displaying no movement within a 15 s period following shaking of […]

Series [2] concerns fully differentiated LUHMES cells. Put plainly: Toxicity in mature central nervous system neurons (neurite mass, viability). To be noted: 48 h; for influence on neurites / viability: concentrations as high as 100 µM; for concentration evoking degeneration of neurites: day 6–8, all assays. The series is classed as cell-based, human. The procedure:
LUHMES cells are conditionally immortalized human fetal ventral mesencephalic neuronal precursor cells that were obtained by clonal selection. Differentiated LUHMES cells show a clear dopaminergic phenotype, which was described in detail previously (Schildknecht et al. [2009]; Scholz et al. [2011]). Cells were propagated in advanced DMEM/F12 (Gibco/Invitrogen, Darmstadt, Germany) with 1 × N2 supplement (Invitrogen), 2 mM L-glutamine (Gibco), and 40 ng/mL recombinant bFGF (R&D Systems, Minneapolis, MN, USA). The differentiation process was initiated by adding differentiation medium consisting of advanced DMEM/F12, 1 × N2 supplement, 2 mM L-glutamine, 1 mM dibutyryl cAMP (Sigma), 1 µg/mL tetracycline (Sigma), and 2 ng/mL recombinant human GDNF (R + D Systems). After 2 days, cells were trypsinized, collected in advanced DMEM/F12 medium, and seeded onto 24-well plates at a density of 160,000 cells/cm^2. The differentiation process was continued for 4 days. Fully differentiated LUHMES cells were treated with the tested flame retardants for 48 h from day 6 to 8 of differentiation. For visualization of morphology, cells were fixed with 4 % paraformaldehyde for 20 min at room temperature, permeabilized with 0.2 % Triton X-100, washed with PBS, blocked with 1 % BSA (Calbiochem, San Diego, CA, USA) in PBS for 1 h, and stained with a polyclonal anti-β-III-tubulin antibody (Sigma) in 1 % BSA/PBS at 4 °C overnight. After washing, secondary antibodies (anti-mouse-IgG, Alexa 488, Molecular Probes; 1:1000) in 1 % BSA/PBS were added for 1 h, after which nuclei were stained with Hoechst dye H-33342 (1 µg/mL) for 20 min. For visualization, an Olympus IX 81 microscope (Hamburg, Germany) equipped with an F-view CCD camera was used. For quantitative evaluation of the neurite area, β-III-tubulin-stained cells were analyzed using an automated microplate-reading microscope (Array-Scan II® HCS Reader, Cellomics, Pittsburgh, PA, USA) equipped with a Hamamatsu ORCA-ER camera (1024 × 1024 resolution; run at 2 × 2 binning). Nuclei were identified according to their intensity, size, area, and shape. A virtual area corresponding to the cell soma was defined around each nucleus. The total β-III-tubulin pixel area per field minus the soma areas in that field was defined as neurite mass.
[% of total activity ± SD]
[% of total activity± SD]
Suppl. Fig. 7. Toxicity of flame retar dants in central human neurons. Mature human dopaminergic neurons (LUHMES) were treated w ith the different flame retardants in the concentrations as indicated for 48 h from day 6 to day 8 of differentiation. a Cell viability was determined by the resazurin reduction and by the lact ate dehydrogenase release a ssays. b Intracellular levels of ATP and of reduced glutathione (GSH) were measured in parallel.

Where [3] appears, read: loading rate 10 mg/l, replicate A.
[4] abbreviates: loading rate 10 mg/l, replicate B.
Where [5] appears, read: loading rate 100 mg/l, replicate A.
Where [6] appears, read: loading rate 100 mg/l, replicate B.
The mark [7] stands for this setting: loading rate 1000 mg/l, replicate A.
[8] abbreviates: loading rate 1000 mg/l, replicate B.

For `O=[PH]1Oc2ccccc2-c2ccccc21` (centres unmarked) [DOPO, 9,10-dihydro-9-oxa-10-phosphaphenanthrene-10-oxide], in series [1], the “concentration moderately affecting neurite mass and reducing cell viability” value is greater than 50 µM. In the series with Daphnia magna, the daphnia viability result was “nor did they affect algae growth or daphnia viability”. For the same compound, the “influence on neurites / viability” value in series [2] is listed as “no influence”.
In the case of `O=P1(NCCNP2(=O)Oc3ccccc3-c3ccccc32)Oc2ccccc2-c2ccccc21` (centres unmarked) [EDA-DOPO, 6,6′-(ethane-1,2-diylbis(azanediyl))bis(6H-dibenzo[c,e][1,2]oxaphosphinine-6-oxide)], the “concentration moderately affecting neurite mass and reducing cell viability” value in series [1] is listed as greater than 50 µM. Further, the daphnia viability entry with Daphnia magna is recorded as “nor did they affect algae growth or daphnia viability”. The “Immobile Daphnia after 48 h” value is recorded as 0% in the series with Daphnia magna (setting [3]); 0% with Daphnia magna (setting [4]); 0% with Daphnia magna (setting [5]); 0% in the series on Daphnia magna (setting [6]); 5% with Daphnia magna (setting [7]); 10% with Daphnia magna (setting [8]). The “influence on neurites / viability” value in series [2] was “no influence”.
As for `O=P1(OCCOP2(=O)Oc3ccccc3-c3ccccc32)Oc2ccccc2-c2ccccc21` (centres unmarked) [EG-DOPO, 6,6′-(ethane-1,2-diylbis(oxy))bis(6H-dibenzo[c,e][1,2]oxaphosphinine-6-oxide)], the cell viability entry in series [1] is given as “significantly affected”. The neurite integrity entry in series [1] is “significantly affected”. Also, the “Immobile Daphnia after 48 h” value came to 0% in the series with Daphnia magna (setting [3]); 0% in the series with Daphnia magna (setting [4]); 10% with Daphnia magna (setting [5]); 0% in the series with Daphnia magna (setting [6]); 5% in the series on Daphnia magna (setting [7]); 10% in the series on Daphnia magna (setting [8]). Moreover, the “concentration evoking degeneration of neurites” value in series [2] is given as greater than 10 µM.
Take `O=P1(NCCOP2(=O)Oc3ccccc3-c3ccccc32)Oc2ccccc2-c2ccccc21` (centres unmarked) [ETA-DOPO, 6-(2-((6-oxido-6H-dibenzo[c,e][1,2]oxaphosphinin-6-yl)amino)ethoxy)-6H-dibenzo[c,e][1,2]oxaphosphinine 6-oxide]: the “concentration moderately affecting neurite mass and reducing cell viability” value in series [1] is recorded as greater than 50 µM. The “Immobile Daphnia after 48 h” value in the series with Daphnia magna (setting [3]) is listed as 5%; in the series with Daphnia magna (setting [4]), 0%; in the series with Daphnia magna (setting [5]), 0%; in the series with Daphnia magna (setting [6]) it was 0%; in the series with Daphnia magna (setting [7]), 5%; with Daphnia magna (setting [8]), 0%. The “concentration evoking degeneration of neurites” value in series [2] was greater than 10 µM.
With `Brc1ccc(Oc2cc(Br)c(Br)cc2Br)c(Br)c1` [PBDE-99, reference compound], in series [1], the cell viability entry was “significantly affected” and the neurite integrity entry is “significantly affected”. Also, the “concentration evoking degeneration of neurites” value in series [2] was greater than 10 µM.
